Assay results as given in ChEMBL document CHEMBL1133273, “Synthesis and evaluation of quinoline carboxyguanidines as antidiabetic agents” (2000).

What was measured:
Type in all cases: functional
Rattus norvegicus [1] = experiment: Percent glycaemia evolution at 200 mg/kg at 2 hr after a sharp administration (J1) in Wistar rats
Rattus norvegicus [2] = experiment: Percent glycaemia evolution at 200 mg/kg at 2 hr after the last administration for 4 days chronic treatment (J4) in Wistar rats
Rattus norvegicus [3] = experiment: Percent glycaemia evolution at 20 mg/kg at 2 hr after the last administration for 4 days chronic treatment (J4) in Wistar rats
Rattus norvegicus [4] = experiment: Percent glycaemia evolution at 20 mg/kg at 2 hr after a sharp administration (J1) in Wistar rats
Rattus norvegicus [5] = experiment: Number of deaths at 200 mg/kg at 2 hr after the last administration for 4 days chronic treatment (J4) in Wistar rats; 4 death/5
Rattus norvegicus [6] = experiment: Number of deaths at 20 mg/kg at 2 hr after the last administration for 4 days chronic treatment (J4) in Wistar rats; 1 death/5

| SMILES | Glycaemia evolution (Rattus norvegicus [1]) | Glycaemia evolution (Rattus norvegicus [2]) | Glycaemia evolution (Rattus norvegicus [3]) | Glycaemia evolution (Rattus norvegicus [4]) | No. of deaths (Rattus norvegicus [5]) | No. of deaths (Rattus norvegicus [6]) |
| --- | --- | --- | --- | --- | --- | --- |
| Cl.N=C(N)NNC(=O)c1cc(O)c2cc(F)ccc2n1 | 8% | -2% | 4% | 8% |  |  |
| CCn1cc(C(=O)NN=C(N)N)c(=O)c2cc(OC)ccc21.Cl | 6% | -6% | -12% | -10% |  |  |
| CCn1cc(C(=O)N=C(N)N)c(=O)c2cc(OC)ccc21.Cl | 0% | -9% | 0% | 0% |  |  |
| CCOc1cc(C(=O)Nc2nn[nH]n2)nc2ccc(F)cc12 | 9% | -6% | 4% | 8% |  |  |
| CCOc1cc(C(=O)N=C(N)N)nc2cc3c(cc12)OCO3.Cl | -4% | -7% | -6% | 1% |  |  |
| COc1ccc2ncc(C(=O)N=C(N)N)c(O)c2c1.Cl | -8% | 3% | 3% | 5% |  |  |
| NC(=O)NNC(=O)c1cc(O)c2cc(F)ccc2n1 | -7% | -14% | -16% | -6% |  |  |
| CCOc1cc(C(=O)NN=C(N)N)nc2ccc(F)cc12.Cl | -4% | -14% | -3% | 6% |  |  |
| Cl.N=C(N)NC(=O)c1cc(O)c2cc(F)ccc2n1 | -7% | -14% | -15% | -5% |  |  |
| CCOc1cc(C(=O)NNC(N)=O)nc2ccc(F)cc12 | 8% | -3% | -8% | 3% |  |  |
| CCOc1cc(C(=O)N=C(N)N)nc2cc(OC)ccc12 | 6% | 2% | -2% | 2% |  |  |
| Cl.N=C(N)NC(=O)c1cc(Cl)c2cc(F)ccc2n1 | 58% |  |  | 19% | 4 | 1 |
| CCN1CC(C(=O)N/N=C(\N)N=C(N)N)C(=O)c2cc(OC)ccc21.Cl (stereo not given) | 2% | -5% | -2% | -3% |  |  |
| CCn1cc(C(=O)N=C(N)N)c(=O)c2ccc(C)nc21.Cl | -4% | -21% | -11% | 1% |  |  |
| CCOc1cc(C(=O)N=C(N)N)nc2ccc(F)cc12.Cl | -5% | -30% | -10% | -8% |  |  |
